# Measured values from ChEMBL document CHEMBL1201862, “PubChem BioAssay data set” (2004).
#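 All cell lines were grown in 96-well plates and treated with compound for 48 hours. GI50 marks 50% less growth.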 Active and inactive are the calls of the source. Rule as the data show it: active = GI50 up to about 1.1 µM and inactive = higher.
# Key:
# Experiment in all cases: NCI-60 cell line screen, 48 h
# EKVX = system: EKVX
# NCI-H23 = system: NCI-H23
# KM12 = system: KM12
# K562 = system: K562
# NCI-H226 = system: NCI-H226
# IGROV-1 = system: IGROV-1
# CCRF-CEM = system: CCRF-CEM
# Malme-3M = system: Malme-3M
# DU-145 = system: DU-145
# SK-MEL-2 = system: SK-MEL-2
# SK-MEL-28 = system: SK-MEL-28
# MOLT-4 = system: MOLT-4
# SNB-19 = system: SNB-19
# OVCAR-3 = system: OVCAR-3
# SK-OV-3 = system: SK-OV-3
# HOP-62 = system: HOP-62
# SF-295 = system: SF-295
# CAKI-1 = system: CAKI-1
# UACC-62 = system: UACC-62
# BT-549 = system: BT-549
Structure (SMILES),GI50 (EKVX),GI50 (NCI-H23),GI50 (KM12),GI50 (K562),GI50 (NCI-H226),GI50 (IGROV-1),GI50 (CCRF-CEM),GI50 (Malme-3M),GI50 (DU-145),GI50 (SK-MEL-2),GI50 (SK-MEL-28),GI50 (MOLT-4),GI50 (SNB-19),GI50 (OVCAR-3),GI50 (SK-OV-3),GI50 (HOP-62),GI50 (SF-295),GI50 (CAKI-1),GI50 (UACC-62),GI50 (BT-549)
O=C(NNCC(O)COc1ccccc1)c1ccccc1 (centres undefined),> 100 µM (inactive),> 100 µM (inactive),> 100 µM (inactive),> 100 µM (inactive),> 100 µM (inactive),> 100 µM (inactive),> 100 µM (inactive),> 100 µM (inactive),> 100 µM (inactive),> 100 µM (inactive),> 100 µM (inactive),> 100 µM (inactive),> 100 µM (inactive),> 100 µM (inactive),> 100 µM (inactive),> 100 µM (inactive),> 100 µM (inactive),> 100 µM (inactive),> 100 µM (inactive),–
O=P(O)(O)CCP(=O)(O)O,> 100 µM (inactive),> 100 µM (inactive),> 100 µM (inactive),> 100 µM (inactive),–,> 100 µM (inactive),> 100 µM (inactive),> 100 µM (inactive),> 100 µM (inactive),> 100 µM (inactive),> 100 µM (inactive),> 100 µM (inactive),> 100 µM (inactive),> 100 µM (inactive),> 100 µM (inactive),> 100 µM (inactive),> 100 µM (inactive),> 100 µM (inactive),> 100 µM (inactive),> 100 µM (inactive)
Cc1cc(C)n(CN(Cn2nc(C)cc2C)C2CCCCC2)n1,31.8 µM (inactive),24 µM (inactive),21.2 µM (inactive),–,–,20.1 µM (inactive),19 µM (inactive),20.5 µM (inactive),24.3 µM (inactive),17.6 µM (inactive),20.7 µM (inactive),–,85.1 µM (inactive),25.9 µM (inactive),38 µM (inactive),31.3 µM (inactive),94 µM (inactive),31.5 µM (inactive),21.5 µM (inactive),23.3 µM (inactive)
CC(=O)/N=C1\C=C(NC(C)=O)C(=O)c2ccccc21,5.19 µM (inactive),0.451 µM (active),5.41 µM (inactive),2.04 µM (inactive),7.96 µM (inactive),1.71 µM (inactive),2.84 µM (inactive),1.93 µM (inactive),–,3.09 µM (inactive),3 µM (inactive),1.98 µM (inactive),3.03 µM (inactive),2.01 µM (inactive),6.79 µM (inactive),18.5 µM (inactive),3.68 µM (inactive),1.95 µM (inactive),2.35 µM (inactive),2.17 µM (inactive)
COc1ccc(/C=c2\s/c(=C3/SC(=S)N(c4ccccc4)C3=O)n(-c3ccccc3)c2=O)cc1,> 100 µM (inactive),26.9 µM (inactive),> 100 µM (inactive),> 100 µM (inactive),–,19.7 µM (inactive),24 µM (inactive),> 100 µM (inactive),> 100 µM (inactive),–,> 100 µM (inactive),29.8 µM (inactive),35.4 µM (inactive),> 100 µM (inactive),12.1 µM (inactive),21.6 µM (inactive),35 µM (inactive),32.9 µM (inactive),61 µM (inactive),43.2 µM (inactive)
CNc1ncnc2c1ncn2C1C=CC(COS(N)(=O)=O)C1 (centres undefined),> 100 µM (inactive),> 100 µM (inactive),> 100 µM (inactive),> 100 µM (inactive),–,> 100 µM (inactive),> 100 µM (inactive),> 100 µM (inactive),> 100 µM (inactive),> 100 µM (inactive),> 100 µM (inactive),> 100 µM (inactive),> 100 µM (inactive),> 100 µM (inactive),> 100 µM (inactive),> 100 µM (inactive),> 100 µM (inactive),> 100 µM (inactive),> 100 µM (inactive),> 100 µM (inactive)
O=c1[nH]cc(-c2c[nH]c3ccccc23)nc1-c1c[nH]c2ccccc12,12.2 µM (inactive),14.7 µM (inactive),4.95 µM (inactive),2.96 µM (inactive),–,2.92 µM (inactive),–,11.2 µM (inactive),13.2 µM (inactive),14.8 µM (inactive),15.2 µM (inactive),–,15.8 µM (inactive),9.51 µM (inactive),13.4 µM (inactive),12.5 µM (inactive),4.53 µM (inactive),3.28 µM (inactive),11.1 µM (inactive),15.3 µM (inactive)
CC1(C)SCc2nc3ccccc3n21,> 100 µM (inactive),> 100 µM (inactive),> 100 µM (inactive),> 100 µM (inactive),89.9 µM (inactive),> 100 µM (inactive),> 100 µM (inactive),> 100 µM (inactive),> 100 µM (inactive),> 100 µM (inactive),> 100 µM (inactive),> 100 µM (inactive),> 100 µM (inactive),> 100 µM (inactive),> 100 µM (inactive),> 100 µM (inactive),> 100 µM (inactive),> 100 µM (inactive),> 100 µM (inactive),–
CC(=O)Nc1ccc(OC/C(N)=N/NC(=O)c2ccncc2)cc1,> 100 µM (inactive),> 100 µM (inactive),> 100 µM (inactive),> 100 µM (inactive),–,> 100 µM (inactive),> 100 µM (inactive),–,> 100 µM (inactive),> 100 µM (inactive),> 100 µM (inactive),> 100 µM (inactive),> 100 µM (inactive),> 100 µM (inactive),> 100 µM (inactive),> 100 µM (inactive),> 100 µM (inactive),> 100 µM (inactive),> 100 µM (inactive),> 100 µM (inactive)
CN(C)c1ccc(C=C2N=C(c3ccccc3)N(c3cc(C(=O)c4ccccc4)ccc3N3C(=O)/C(=C/c4ccc(N(C)C)cc4)N=C3c3ccccc3)C2=O)cc1,20.5 µM (inactive),–,3.71 µM (inactive),3.95 µM (inactive),–,5.86 µM (inactive),3.49 µM (inactive),–,5.74 µM (inactive),3.29 µM (inactive),> 100 µM (inactive),3.38 µM (inactive),7.94 µM (inactive),2.12 µM (inactive),4.75 µM (inactive),20.7 µM (inactive),3.76 µM (inactive),14 µM (inactive),4.24 µM (inactive),28.3 µM (inactive)
Cc1ccc(CS(=O)(=O)C/N=C2\Sc3ccccc3N\C2=C/C(=O)c2ccc(Cl)cc2)cc1,–,> 10 µM (inactive),> 10 µM (inactive),> 10 µM (inactive),–,> 10 µM (inactive),1 µM (active),> 10 µM (inactive),> 10 µM (inactive),–,> 10 µM (inactive),6.08 µM (inactive),> 10 µM (inactive),> 10 µM (inactive),> 10 µM (inactive),8.22 µM (inactive),> 10 µM (inactive),> 10 µM (inactive),> 10 µM (inactive),> 10 µM (inactive)
